In patent US10605810B2, “Pincers comprising antibody and aptamer conjugated via a linker which binds to the same target material and use thereof” (University-Industry Cooperation Group Of Kyung Hee …, priority 2013, dated 2020):
{NH2C6} = aminohexyl linker, H2N-(CH2)6-

Assays:
thrombin = molecular target: T1, thrombin (Homo sapiens, UniProt P00734); conditions: read-out: Kd^app values reported in the art; cited from earlier work
T1 construct: 200 μL (2 nmol) of the thrombin solution prepared at a concentration of 10 pmol/pt was prepared; purchased Research Laboratories

SK-BR-3 cells = test: Cell viability by MTT reduction assay, SK-BR-3
Experimental: In order to maintain the cells in the log phase, a fresh medium was resupplied two or three times a week.
The cell viability was measured using the standard 3-(4,5-dimethylthiazol-2-yl)-2,5-diphenyltetrazolium bromide (MTT) reduction assay. Simply, cells that grow exponentially were inoculated at a density of 5×10^3 per well in a 96-well with flat bottom plate (200 μL/well) and cultured at 37° C. for 24 hours.
10 μL of MTT solution was added to each well, and the cells were further cultured at 37° C. for 4 hours. The amount of formazan product was measured at 570 nm. The cell survival fraction was calculated as a percentage of the untreated control group.

HER2 epitope peptide = conditions: read-out: Kd for HER2 epitope peptide (reported); cited from earlier work
[1] = molecular target: extracellular domain of a HER2 protein (Homo sapiens, UniProt P04626); conditions: cited from earlier work

**Q.** For “15-mer DNA aptamer: 5′-H2N—(CH2)6-GGT TGG TGT GGT TGG-3′, specifically binds to thrombin”, which Kd (thrombin) is on record?
**A.** The Kd was 20.2 nM.

**Q.** For “29-mer DNA aptamer: 5′-H2N—(CH2)6-AGTCCGTGGTAGGGCAGGTTGGGGTGACT-3′, specifically binds to thrombin”, which Kd (thrombin) is on record?
**A.** The Kd was 3.5 nM.

**Q.** Which IC50 (SK-BR-3 cells; Homo sapiens, SK-BR-3, 24 h, read-out: IC50 for SK-BR-3) does the source give for COc1cccc2c1C(=O)c1c(O)c3c(c(O)c1C2=O)C[C@@](O)(C(=O)CO)C[C@@H]3O[C@H]1C[C@H](N)[C@H](O)[C@H](C)O1 [Dox, doxorubicin] here?
**A.** The IC50 was 43.9 nM.

B1: anti-HER2 aptamer: anti-human epidermal growth factor 2 (HER2) aptamer, SEQ ID NO: 3, purchased from Bioneers (nucleic acid)
DNA: AACCGCCCAAATCCCTAAGAGTCTGCACTTGTCATTTTGTATATGTATTTGGTTTTTGGCTCTCACAGACACACTACACACGCACA
modifications: DNA, 5' {NH2C6}, backbone not given here; further chemistry not fully specified
**Q.** Which results are given for B1?
**A.** cytotoxicity against SK-BR-3 cells (SK-BR-3 cells; 0 nM to 100 nM, FIG. 10): does not have cytotoxicity; Kd (HER2 epitope peptide): 18.9 nM; Kd [1]: 315 nM
